Measured values taken from paper PMC10302202, “The Finding of New In Vivo Metabolite Triptorelin (5-10) in Human Urine Using Liquid Chromatography Coupled with Ion Trap/Time-of-Flight Mass Spectrometry with Dimethyl Sulfoxide Additives in the Mobile Phase” (Molecules, 2023).
Values belong to the compound of their own block, whether it stands above or below them. Non-standard residues stand in square brackets, D forms with d. Residues, ends and D or L forms follow the SMILES beside them.

Legend:
[1] = in vivo; cited from earlier work
[2] = Urine levels of triptorelin and triptorelin (5-10) in patients after triptorelin administration (LC/MS-IT-TOF); assay type: in vivo, human; details: for detection level in urine, 3 h / detection level in urine, 6 h: first time, prostate cancer patient
Description: The column compartment temperature was set at 30 °C. The autosampler unit temperature was set at 10 °C. […] The spray voltage was set at 4 kV.
A further urine sample was collected one month later.
The injection volume was 30 μL. The total runtime is 9 min.

[3] = Urine levels of leuprorelin and leuprorelin (5-9) in patients after leuprorelin administration (LC/MS-IT-TOF); details: SPE; for detection level in urine, 3 h / detection level in urine, 6 h: first time, prostate cancer patient
Description: (§1) Sample analysis was carried out by using the LCMS-IT-TOF Prominence system (Shimadzu, Japan) and LC model UPLC 8040 [18]. The analytical column was a Poroshell 120 EC-C18 (2.1 mm × 150 mm, 2.7 μm particle) coupled with a guard column (SecurityGuard^TM C18, 3.0 mm). The column compartment temperature was set at 30 °C. The autosampler unit temperature was set at 10 °C. Dry gas was set at 47 kPa, and nebulizer gas was set at 1.5 L/min. The curved desolvation line (CDL) and heating block temperature were set at 250 °C. The spray voltage was set at 4 kV.
(§2) Urine samples were collected at the Division of Urology, Department of Surgery, Faculty of Medicine, Ramathibodi Hospital, Bangkok, Thailand. […] Urine samples were collected at 0.0, 3.0, and 6.0 h from 5 patients who had received either 11.25 mg of Enantone® L.P (leuprorelin acetate) or Diphereline® P.R. (triptorelin pamoate) intramuscularly for the first time.
(§3) In this study, 200 mL of sodium phosphate buffer (pH 6.8; 0.8 M) was added to a 3.0 mL aliquot of urine. The batch of samples was centrifuged at 5000 rpm for 5 min at 5 °C. The supernatant from each tube was transferred to a new set of protein LoBind® tubes, Eppendorf (Melbourne, Australia) and 20 μL of ISTD (see Section 4.3) was added to each sample [17]. SPE cartridges (see Section 4.1) were activated with 2 mL of methanol followed by 2 mL of ultra-pure water. The supernatants were slowly loaded onto the SPE cartridges (flow rate is approximately 1.0 mL/min) and washed with 1 mL of water, followed by 1 mL of freshly prepared 10% v/v aqueous methanol; then, all washing solutions were removed and dried using a vacuum pump. Elution was performed using freshly prepared 10% v/v formic acid in methanol. Eluates were evaporated at 45 °C to approximately 10 μL in a vacuum centrifuge. The residues were reconstituted in 50 μL of freshly prepared 0.1% formic acid in water.
(§4) The mobile phases were 0.1% formic acid in water with or without 1% DMSO (mobile phase A) and acetonitrile (mobile phase B) at a flow rate of 0.3 mL/min. The mobile phase gradient program was as follows: 0.0–2.0 min, 20 to 30% B; 2.0–4.0 min, 30 to 45% B; 4.0–5.0 min, 45 to 100% B; 5.0–6.0 min, hold at 100% B; 6.0–7.0 min, 100% to 20% B; and 7.0–9.0 min hold at 20% B (column equilibration). The injection volume was 30 μL. The total runtime is 9 min.
(§5) Mass spectrometric analysis was employed both in the full-scan mode and MS-MS mode. Data analysis was performed using 2 product ion transitions for each compound. LC/MS-IT-TOF mass spectrometric variables, including the m/z of product ions, ion accumulation time, and collision energy (CE), were optimized for maximum abundance for each ion transition. Ionization was performed using ESI in the positive ion mode at 3500 V. The ion accumulation time was 10 milliseconds, and the isolation width was 1.5 Dalton.
(§6) The mean and standard deviation of the concentration of leuprorelin, leuprorelin (5-9), triptorelin, and triptorelin (5-10) from 5 patients were used for statistical analysis.

clinical = details: human, in vivo, im, 11.25 mg, detection level in urine, mean
Description: as §1, §2, §3, §4, §5, §6

level at 3 h ([2]; human, urine, im, 11.25 mg, mean of n = 5 patients, urine 3 h after 11.25 mg Diphereline P.R. (triptorelin pamoate) intramuscularly, SPE, LC/MS-IT-TOF, read-out: detection level in urine, 3 h, mean): 64.1 ng/mL
level at 6 h ([2]; human, urine, im, 11.25 mg, mean of n = 5 patients, urine 6 h after 11.25 mg Diphereline P.R. (triptorelin pamoate) intramuscularly, SPE, LC/MS-IT-TOF, read-out: detection level in urine, 6 h, mean): 62.6 ng/mL
Compound: CC(C)C[C@H](NC(=O)[C@@H](Cc1c[nH]c2ccccc12)NC(=O)[C@H](Cc1ccc(O)cc1)NC(=O)[C@H](CO)NC(=O)[C@H](Cc1c[nH]c2ccccc12)NC(=O)[C@H](Cc1c[nH]cn1)NC(=O)[C@@H]1CCC(=O)N1)C(=O)N[C@@H](CCCNC(=N)N)C(=O)N1CCC[C@H]1C(=O)NCC(N)=O [Triptorelin, triptorelin]

detection level in urine, 1 month, mean ([2]; mean line, n = 5 for triptorelin, n = 3 for triptorelin (5-10), urine 1 month after 11.25 mg Diphereline P.R. (triptorelin pamoate) intramuscularly, ND = not detectable): 0.7 ng/mL
detection level in urine, 3 h, mean ([2]; mean of n = 5 patients, urine 3 h after 11.25 mg Diphereline P.R. (triptorelin pamoate) intramuscularly, SPE, LC/MS-IT-TOF): 105.5 ng/mL
detection level in urine, 1 month ([2]; patient 1, urine 1 month after 11.25 mg Diphereline P.R. (triptorelin pamoate) intramuscularly, ND = not detectable, SPE, LC/MS-IT-TOF): 1.2 ng/mL
detection level in urine, 3 h ([2]; patient 1, urine 3 h after 11.25 mg Diphereline P.R. (triptorelin pamoate) intramuscularly, SPE, LC/MS-IT-TOF): 84.3 ng/mL
detection level in urine, 6 h ([2]; patient 1, urine 6 h after 11.25 mg Diphereline P.R. (triptorelin pamoate) intramuscularly, SPE, LC/MS-IT-TOF): 24.7 ng/mL
detection level in urine, 1 month ([2]; patient 2, urine 1 month after 11.25 mg Diphereline P.R. (triptorelin pamoate) intramuscularly, ND = not detectable, SPE, LC/MS-IT-TOF): 0.3 ng/mL
detection level in urine, 3 h ([2]; patient 2, urine 3 h after 11.25 mg Diphereline P.R. (triptorelin pamoate) intramuscularly, SPE, LC/MS-IT-TOF): 25.3 ng/mL
detection level in urine, 6 h ([2]; patient 2, urine 6 h after 11.25 mg Diphereline P.R. (triptorelin pamoate) intramuscularly, SPE, LC/MS-IT-TOF): 43.5 ng/mL
detection level in urine, 3 h ([2]; patient 3, urine 3 h after 11.25 mg Diphereline P.R. (triptorelin pamoate) intramuscularly, SPE, LC/MS-IT-TOF): 12.8 ng/mL
detection level in urine, 6 h ([2]; patient 3, urine 6 h after 11.25 mg Diphereline P.R. (triptorelin pamoate) intramuscularly, SPE, LC/MS-IT-TOF): 3.2 ng/mL
detection level in urine, 3 h ([2]; patient 4, urine 3 h after 11.25 mg Diphereline P.R. (triptorelin pamoate) intramuscularly, SPE, LC/MS-IT-TOF): 225.7 ng/mL
detection level in urine, 6 h ([2]; patient 4, urine 6 h after 11.25 mg Diphereline P.R. (triptorelin pamoate) intramuscularly, SPE, LC/MS-IT-TOF): 250.6 ng/mL
detection level in urine, 1 month ([2]; patient 5, urine 1 month after 11.25 mg Diphereline P.R. (triptorelin pamoate) intramuscularly, ND = not detectable, SPE, LC/MS-IT-TOF): 0.6 ng/mL
detection level in urine, 3 h ([2]; patient 5, urine 3 h after 11.25 mg Diphereline P.R. (triptorelin pamoate) intramuscularly, SPE, LC/MS-IT-TOF): 179.1 ng/mL
detection level in urine, 6 h ([2]; patient 5, urine 6 h after 11.25 mg Diphereline P.R. (triptorelin pamoate) intramuscularly, SPE, LC/MS-IT-TOF): 202.0 ng/mL
Compound: CC(C)C[C@H](NC(=O)[C@@H](Cc1c[nH]c2ccccc12)NC(=O)[C@@H](N)Cc1ccc(O)cc1)C(=O)N[C@@H](CCCNC(=N)N)C(=O)N1CCC[C@H]1C(=O)NCC(N)=O [Triptorelin (5-10), triptorelin (5-10)] (H-Y[dW]LRPG-NH2)

level at 3 h (clinical; 3 h): 65 ng/mL
level at 6 h (clinical; 6 h): 106 ng/mL
Compound: CCNC(=O)[C@@H]1CCCN1C(=O)[C@H](CCCNC(=N)N)NC(=O)[C@H](CC(C)C)NC(=O)[C@@H](CC(C)C)NC(=O)[C@H](Cc1ccc(O)cc1)NC(=O)[C@H](CO)NC(=O)[C@H](Cc1c[nH]c2ccccc12)NC(=O)[C@H](Cc1c[nH]cn1)NC(=O)[C@@H]1CCC(=O)N1 [Leuprorelin, leuprorelin]

Continued, compound first:

Compound: GnRH: endogenous 10-amino-acid peptide synthesized and produced in the hypothalamus
half-life [1]: 2 min

Compound: CCNC(=O)[C@@H]1CCCN1C(=O)[C@H](CCCNC(=N)N)NC(=O)[C@H](CC(C)C)NC(=O)[C@@H](CC(C)C)NC(=O)[C@@H](N)Cc1ccc(O)cc1 [Leuprorelin (5-9), leuprorelin (5-9)] (H-Y[dL]LRP-NHEt)
detection level in urine, 3 h, mean ([3]; mean of n = 5 patients, urine 3 h after 11.25 mg Enantone L.P (leuprorelin acetate) intramuscularly): 74.8 ng/mL
detection level in urine, 6 h, mean ([3]; mean of n = 5 patients, urine 6 h after 11.25 mg Enantone L.P (leuprorelin acetate) intramuscularly): 78.9 ng/mL
detection level in urine, 3 h ([3]; patient 1, urine 3 h after 11.25 mg Enantone L.P (leuprorelin acetate) intramuscularly): 68.0 ng/mL
detection level in urine, 6 h ([3]; patient 1, urine 6 h after 11.25 mg Enantone L.P (leuprorelin acetate) intramuscularly): 73.1 ng/mL
detection level in urine, 3 h ([3]; patient 2, urine 3 h after 11.25 mg Enantone L.P (leuprorelin acetate) intramuscularly): 106.9 ng/mL
detection level in urine, 6 h ([3]; patient 2, urine 6 h after 11.25 mg Enantone L.P (leuprorelin acetate) intramuscularly): 18.7 ng/mL
detection level in urine, 3 h ([3]; patient 3, urine 3 h after 11.25 mg Enantone L.P (leuprorelin acetate) intramuscularly): 162.9 ng/mL
detection level in urine, 6 h ([3]; patient 3, urine 6 h after 11.25 mg Enantone L.P (leuprorelin acetate) intramuscularly): 100.4 ng/mL
detection level in urine, 3 h ([3]; patient 4, urine 3 h after 11.25 mg Enantone L.P (leuprorelin acetate) intramuscularly): 16.7 ng/mL
detection level in urine, 6 h ([3]; patient 4, urine 6 h after 11.25 mg Enantone L.P (leuprorelin acetate) intramuscularly): 23.8 ng/mL
detection level in urine, 3 h ([3]; patient 5, urine 3 h after 11.25 mg Enantone L.P (leuprorelin acetate) intramuscularly): 19.3 ng/mL
detection level in urine, 6 h ([3]; patient 5, urine 6 h after 11.25 mg Enantone L.P (leuprorelin acetate) intramuscularly): 178.7 ng/mL
